Where two headings read alike, the source gives them in different places. Numbered stars: 1 amine (or outer) side, 2 acyl side, 3 side chain; on linkers, the order of the positions; unused ones are H or OH. Square brackets hold non-standard residues; d marks the D form. Side chains are listed from the residue outwards. Peptide text beside a SMILES is read from it. * marks the point of attachment. C18 diacid = O=C(O)CCCCCCCCCCCCCCCCC(=O)*; γGlu = O=C(O)[C@H](CCC(=O)[*:2])N[*:1]; Palmitoyl = CCCCCCCCCCCCCCCC(=O)*; αMeF = C[C@](N)(Cc1ccccc1)C(=O)O; αMeK = C[C@](N)(CCCCN)C(=O)O; αMeS = C[C@](N)(CO)C(=O)O; AEEA = NCCOCCOCC(=O)O; Aib = CC(C)(N)C(=O)O
Key:
Format in all cases: cell-based
[1] = molecular target: T1, human GLP-1 receptor (GLP-1R) (Homo sapiens, UniProt P43220); test: cAMP assay, human GLP-1R cells
T1 construct: expressed in transfected cells
T1 sequence (P43220 24-463): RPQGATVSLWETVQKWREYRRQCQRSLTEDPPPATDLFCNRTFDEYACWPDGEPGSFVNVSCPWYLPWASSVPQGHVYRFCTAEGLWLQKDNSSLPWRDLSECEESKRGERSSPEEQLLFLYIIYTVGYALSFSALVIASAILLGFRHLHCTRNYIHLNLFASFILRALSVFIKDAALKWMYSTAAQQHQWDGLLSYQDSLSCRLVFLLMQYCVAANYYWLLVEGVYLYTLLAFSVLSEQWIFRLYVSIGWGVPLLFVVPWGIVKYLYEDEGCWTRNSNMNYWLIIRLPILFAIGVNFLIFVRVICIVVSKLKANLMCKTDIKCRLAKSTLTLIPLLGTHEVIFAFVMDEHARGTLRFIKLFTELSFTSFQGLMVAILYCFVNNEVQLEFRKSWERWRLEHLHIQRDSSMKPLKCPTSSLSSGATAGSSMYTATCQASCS
Procedure, shortened: (§1)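 Peptide-stimulated cAMP measured by two-step HTRF after a 30 min room-temperature incubation with receptor-expressing cells (hGLP-1R, hGIPR at 1×10^5 cells/ml; hGCGR at 2×10^5 cells/ml). Duplicate dilutions; EC50 from 4-parameter logistic fit of % Delta F.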

[2] = molecular target: T2, human glucagon receptor (GCGR) (Homo sapiens, UniProt P47871); test: cAMP assay, human GCGR cells; conditions: cAMP assay
T2 construct: expressed in transfected cells
T2 sequence (P47871 26-477): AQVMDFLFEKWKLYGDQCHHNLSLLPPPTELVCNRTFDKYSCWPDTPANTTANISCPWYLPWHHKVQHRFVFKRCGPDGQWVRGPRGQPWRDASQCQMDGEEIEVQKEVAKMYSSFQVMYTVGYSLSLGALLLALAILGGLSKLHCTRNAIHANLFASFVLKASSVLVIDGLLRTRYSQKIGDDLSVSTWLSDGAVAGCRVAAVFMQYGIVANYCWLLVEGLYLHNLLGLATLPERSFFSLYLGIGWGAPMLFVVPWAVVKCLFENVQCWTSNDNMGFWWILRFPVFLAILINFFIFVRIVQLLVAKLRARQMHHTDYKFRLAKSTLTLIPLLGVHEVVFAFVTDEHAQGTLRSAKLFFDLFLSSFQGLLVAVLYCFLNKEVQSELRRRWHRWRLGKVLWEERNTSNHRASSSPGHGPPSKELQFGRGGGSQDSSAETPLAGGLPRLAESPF
Procedure, shortened: as §1

[3] = molecular target: T3, human glucose-dependent insulinotropic peptide receptor (GIPR) (Homo sapiens, UniProt P48546); test: cAMP assay, human GIPR cells; conditions: cAMP assay
T3 construct: expressed in transfected cells
T3 sequence (P48546 22-466): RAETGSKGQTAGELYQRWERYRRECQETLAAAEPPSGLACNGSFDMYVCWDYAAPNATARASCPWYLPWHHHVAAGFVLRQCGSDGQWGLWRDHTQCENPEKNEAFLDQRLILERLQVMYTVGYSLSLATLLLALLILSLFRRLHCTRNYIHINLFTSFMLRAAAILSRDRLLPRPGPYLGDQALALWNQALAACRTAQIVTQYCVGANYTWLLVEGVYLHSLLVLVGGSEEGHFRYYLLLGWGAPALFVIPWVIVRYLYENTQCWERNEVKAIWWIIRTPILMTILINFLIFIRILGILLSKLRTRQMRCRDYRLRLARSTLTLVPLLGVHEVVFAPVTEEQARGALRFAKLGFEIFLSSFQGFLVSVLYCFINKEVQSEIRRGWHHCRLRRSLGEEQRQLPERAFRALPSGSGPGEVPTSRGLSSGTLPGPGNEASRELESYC
Procedure, shortened: as §1

GLP-1R (INS1e assay) = molecular target: T4, GLP-1R (INS1e assay) (Rattus norvegicus, UniProt P32301); test: INS1e assay, cAMP activity at GLP-1R; conditions: mono-lipidated peptides
T4 construct: endogenous in cells; host or cells: INS-1E cells
T4 sequence (P32301 22-463): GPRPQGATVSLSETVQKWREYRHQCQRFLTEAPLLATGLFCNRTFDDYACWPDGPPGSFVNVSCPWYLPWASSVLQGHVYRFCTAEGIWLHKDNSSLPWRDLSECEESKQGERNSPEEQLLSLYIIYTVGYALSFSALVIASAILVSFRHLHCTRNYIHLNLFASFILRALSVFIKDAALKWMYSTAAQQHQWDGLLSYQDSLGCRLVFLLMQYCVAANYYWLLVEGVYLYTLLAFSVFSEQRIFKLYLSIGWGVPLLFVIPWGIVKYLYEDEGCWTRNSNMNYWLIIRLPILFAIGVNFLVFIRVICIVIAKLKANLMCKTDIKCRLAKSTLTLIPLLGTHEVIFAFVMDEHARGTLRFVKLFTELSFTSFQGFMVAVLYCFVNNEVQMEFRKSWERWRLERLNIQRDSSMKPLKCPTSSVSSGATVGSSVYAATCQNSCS
Procedure, shortened: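 It pairs cAMP-d2 acceptor with anti-cAMP cryptate donor, both prepared 1/20 in conjugate/lysis buffer, applied as a two-step protocol.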

[4] = cAMP assay, first determination (n1), read-out: Primary assay EC50 GLP-1R n1
[5] = cAMP assay, second determination (n2), read-out: Primary assay EC50 GLP-1R n2
[6] = mean of n1 and n2, read-out: Mean pM GLP-1R
[7] = first determination (n1), read-out: Primary assay EC50 Gluc-R (n1)
[8] = second determination (n2), read-out: Primary assay EC50 Gluc-R (n2)
[9] = first determination (n1), read-out: Primary assay EC50 GIP-R (n1)
[10] = second determination (n2), read-out: Primary assay EC50 GIP-R (n2)
[11] = mean of n1 and n2, read-out: INS1e assay EC50 Mean pM GLP-1R
[12] = replicate n1, read-out: INS1e assay EC50 GLP-1R n1
[13] = replicate n2, read-out: INS1e assay EC50 GLP-1R n2

Row | SMILES | EC50 [1, 4] [pM] | EC50 [1, 5] [pM] | EC50 [1, 6] [pM] | EC50 [2, 7] [nM] | EC50 [2, 8] [nM] | EC50 [3, 9] [nM] | EC50 [3, 10] [nM] | EC50 (GLP-1R (INS1e assay); [11]) [pM] | EC50 (GLP-1R (INS1e assay); [12]) [pM] | EC50 (GLP-1R (INS1e assay); [13]) [pM]
1 | CCCCCCCCCCCCCCCC(=O)N[C@@H](CCC(=O)NCCCC[C@H](NC(=O)CNC(=O)[C@H](CCC(=O)O)NC(=O)[C@H](CC(C)C)NC(=O)[C@](C)(Cc1ccccc1)NC(=O)[C@H](CO)NC(=O)[C@](C)(CO)NC(=O)[C@@H](NC(=O)[C@H](CC(=O)O)NC(=O)[C@H](CO)NC(=O)[C@@H](NC(=O)[C@](C)(Cc1ccccc1)NC(=O)[C@H](CO)NC(=O)CNC(=O)[C@H](CCC(=O)O)NC(=O)C(C)(C)NC(=O)[C@@H](N)Cc1c[nH]cn1)[C@@H](C)O)C(C)C)C(=O)N[C@@H](C)C(=O)N[C@@H](C)C(=O)N[C@@](C)(CCCCN)C(=O)N[C@@H](CCC(=O)O)C(=O)N[C@@](C)(Cc1ccccc1)C(=O)N[C@H](C(=O)N[C@@H](C)C(=O)N[C@@](C)(Cc1ccccc1)C(=O)N[C@H](C(=O)N[C@H](C(=O)N[C@@](C)(CCCCN)C(=O)NCC(=O)NCC(N)=O)C(C)C)C(C)C)[C@@H](C)CC)C(=O)O [compound 83] (H-H[Aib]EGS[αMeF]TSDV[αMeS]S[αMeF]LEGK([γGlu-Palmitoyl])AA[αMeK]E[αMeF]IA[αMeF]VV[αMeK]GG-NH2) | 3.2 | 4 | 3.6 | ≥ 28 | ≥ 28 | ≥ 28 | ≥ 28 | 194 | 137 | 250
2 | CCCCCCCCCCCCCCCC(=O)N[C@@H](CCC(=O)NCCCC[C@H](NC(=O)[C@](C)(Cc1ccccc1)NC(=O)[C@H](CO)NC(=O)[C@](C)(CO)NC(=O)[C@@H](NC(=O)[C@H](CC(=O)O)NC(=O)[C@H](CO)NC(=O)[C@@H](NC(=O)[C@](C)(Cc1ccccc1)NC(=O)[C@H](CO)NC(=O)CNC(=O)[C@H](CCC(=O)O)NC(=O)C(C)(C)NC(=O)[C@@H](N)Cc1c[nH]cn1)[C@@H](C)O)C(C)C)C(=O)N[C@@H](CCC(=O)O)C(=O)NCC(=O)N[C@@H](CCC(=O)O)C(=O)N[C@@H](C)C(=O)N[C@@H](C)C(=O)N[C@@](C)(CCCCN)C(=O)N[C@@H](CCC(=O)O)C(=O)N[C@@](C)(Cc1ccccc1)C(=O)N[C@H](C(=O)N[C@@H](C)C(=O)N[C@@](C)(Cc1ccccc1)C(=O)N[C@H](C(=O)N[C@H](C(=O)N[C@@](C)(CCCCN)C(=O)NCC(=O)NCC(N)=O)C(C)C)C(C)C)[C@@H](C)CC)C(=O)O [compound 86] (H-H[Aib]EGS[αMeF]TSDV[αMeS]S[αMeF]K([γGlu-Palmitoyl])EGEAA[αMeK]E[αMeF]IA[αMeF]VV[αMeK]GG-NH2) | 1.3 | 1.7 | 1.5 | ≥ 28 | ≥ 28 | ≥ 28 | ≥ 28 | 65 | 45.3 | 84.5
3 | CCCCCCCCCCCCCCCC(=O)N[C@@H](CCC(=O)NCCCC[C@H](NC(=O)[C@H](CO)NC(=O)[C@](C)(CO)NC(=O)[C@@H](NC(=O)[C@H](CC(=O)O)NC(=O)[C@H](CO)NC(=O)[C@@H](NC(=O)[C@](C)(Cc1ccccc1)NC(=O)[C@H](CO)NC(=O)CNC(=O)[C@H](CCC(=O)O)NC(=O)C(C)(C)NC(=O)[C@@H](N)Cc1c[nH]cn1)[C@@H](C)O)C(C)C)C(=O)N[C@@H](CC(C)C)C(=O)N[C@@H](CCC(=O)O)C(=O)NCC(=O)N[C@@H](CCC(=O)O)C(=O)N[C@@H](C)C(=O)N[C@@H](C)C(=O)N[C@@](C)(CCCCN)C(=O)N[C@@H](CCC(=O)O)C(=O)N[C@@](C)(Cc1ccccc1)C(=O)N[C@H](C(=O)N[C@@H](C)C(=O)N[C@@](C)(Cc1ccccc1)C(=O)N[C@H](C(=O)N[C@H](C(=O)N[C@@](C)(CCCCN)C(=O)NCC(=O)NCC(N)=O)C(C)C)C(C)C)[C@@H](C)CC)C(=O)O [compound 87] | 1.6 | 1.6 | 1.6 | ≥ 28 | ≥ 28 | ≥ 28 | ≥ 28 | 53 | 43.6 | 62.2
4 | CCCCCCCCCCCCCCCC(=O)N[C@@H](CCC(=O)NCCCC[C@H](NC(=O)[C@H](CO)NC(=O)[C@@H](NC(=O)[C@](C)(Cc1ccccc1)NC(=O)[C@H](CO)NC(=O)CNC(=O)[C@H](CCC(=O)O)NC(=O)C(C)(C)NC(=O)[C@@H](N)Cc1c[nH]cn1)[C@@H](C)O)C(=O)N[C@H](C(=O)N[C@@](C)(CO)C(=O)N[C@@H](CO)C(=O)N[C@@](C)(Cc1ccccc1)C(=O)N[C@@H](CC(C)C)C(=O)N[C@@H](CCC(=O)O)C(=O)NCC(=O)N[C@@H](CCC(=O)O)C(=O)N[C@@H](C)C(=O)N[C@@H](C)C(=O)N[C@@](C)(CCCCN)C(=O)N[C@@H](CCC(=O)O)C(=O)N[C@@](C)(Cc1ccccc1)C(=O)N[C@H](C(=O)N[C@@H](C)C(=O)N[C@@](C)(Cc1ccccc1)C(=O)N[C@H](C(=O)N[C@H](C(=O)N[C@@](C)(CCCCN)C(=O)NCC(=O)NCC(N)=O)C(C)C)C(C)C)[C@@H](C)CC)C(C)C)C(=O)O [compound 91] (H-H[Aib]EGS[αMeF]TSK([γGlu-Palmitoyl])V[αMeS]S[αMeF]LEGEAA[αMeK]E[αMeF]IA[αMeF]VV[αMeK]GG-NH2) | 21 | 27 | 24 | ≥ 28 | ≥ 28 | ≥ 28 | ≥ 28 | 2720 | 1930 | 3500
5 | CC[C@H](C)[C@H](NC(=O)[C@](C)(Cc1ccccc1)NC(=O)[C@H](CCC(=O)O)NC(=O)[C@](C)(CCCCN)NC(=O)[C@H](C)NC(=O)[C@H](C)NC(=O)[C@H](CCC(=O)O)NC(=O)CNC(=O)[C@H](CCC(=O)O)NC(=O)[C@H](CC(C)C)NC(=O)[C@](C)(Cc1ccccc1)NC(=O)[C@H](CO)NC(=O)[C@](C)(CO)NC(=O)[C@@H](NC(=O)[C@H](CC(=O)O)NC(=O)[C@H](CO)NC(=O)[C@@H](NC(=O)[C@](C)(Cc1ccccc1)NC(=O)[C@H](CO)NC(=O)CNC(=O)[C@H](CCC(=O)O)NC(=O)C(C)(C)NC(=O)[C@@H](N)Cc1c[nH]cn1)[C@@H](C)O)C(C)C)C(=O)N[C@@H](C)C(=O)N[C@@](C)(Cc1ccccc1)C(=O)N[C@H](C(=O)N[C@H](C(=O)N[C@@](C)(CCCCN)C(=O)N[C@@H](CCCCNC(=O)COCCOCCNC(=O)COCCOCCNC(=O)CC[C@H](NC(=O)CCCCCCCCCCCCCCCCC(=O)O)C(=O)O)C(=O)NCC(N)=O)C(C)C)C(C)C [compound 100] (H-H[Aib]EGS[αMeF]TSDV[αMeS]S[αMeF]LEGEAA[αMeK]E[αMeF]IA[αMeF]VV[αMeK]K([AEEA-AEEA-γGlu-C18 diacid])G-NH2) | 16 |  |  | ≥ 25 | ≥ 24.9 | ≥ 25 | ≥ 24.9 | 822 | 233 | 1410
6 | CC[C@H](C)[C@H](NC(=O)[C@](C)(Cc1ccccc1)NC(=O)[C@H](CCC(=O)O)NC(=O)[C@](C)(CCCCN)NC(=O)[C@H](C)NC(=O)[C@H](C)NC(=O)[C@H](CCC(=O)O)NC(=O)CNC(=O)[C@H](CCC(=O)O)NC(=O)[C@H](CC(C)C)NC(=O)[C@](C)(Cc1ccccc1)NC(=O)[C@H](CO)NC(=O)[C@](C)(CO)NC(=O)[C@@H](NC(=O)[C@H](CC(=O)O)NC(=O)[C@H](CO)NC(=O)[C@@H](NC(=O)[C@](C)(Cc1ccccc1)NC(=O)[C@H](CO)NC(=O)CNC(=O)[C@H](CCC(=O)O)NC(=O)C(C)(C)NC(=O)[C@@H](N)Cc1c[nH]cn1)[C@@H](C)O)C(C)C)C(=O)N[C@@H](C)C(=O)N[C@@](C)(Cc1ccccc1)C(=O)N[C@H](C(=O)N[C@H](C(=O)N[C@@H](CCCCNC(=O)COCCOCCNC(=O)COCCOCCNC(=O)CC[C@H](NC(=O)CCCCCCCCCCCCCCCCC(=O)O)C(=O)O)C(=O)NCC(=O)NCC(N)=O)C(C)C)C(C)C [compound 101] | 58 | 51.2 | 55 | ≥ 25 | ≥ 25.4 | ≥ 25 | ≥ 25.4 | 4060 | 1470 | 6650

Reference: US10414811B2, “Protease-resistant lipidated GLP-1 analogs” (MEDIMMUNE LIMITED, priority 2015, dated 2019)
